ChEMBL document CHEMBL5579881, “Synthesis of the Corrected Structure Assigned to Clonorosin B, an Alkaloid Obtained from the Soil-derived Fungus Clonostachys rosea YRS-06” (J Nat Prod, 2024)
Calls of active or inactive are those of the source. The calls are words filed in the database; no cut-off is given here.

Tests used:
SW-620 = assay: Cytotoxicity against human SW620 cells assessed as growth inhibition at 0.01 to 30 uM incubated for 48 hrs by MTT assay; assay type: functional, cell-based; details: dose 0.01-30 µM
Escherichia coli = assay: Antibacterial activity against Escherichia coli ATCC 11775 assessed as inhibition of microbial growth at 0.01 to 30 uM after 24 hrs by spectrophotometric analysis; assay type: functional, organism-based; details: dose 0.01-30 µM
[1] = molecular target: ATP-dependent translocase ABCB1 (Homo sapiens, UniProt P08183); assay: Inhibition of P-gp in human SW620/AD300 cells assessed as reduction in doxorubicin IC50 at 5 uM incubated for 48 hrs by MTT assat; assay type: functional, cell-based; details: sw620/ad300, 48 h
Staphylococcus aureus [2] = assay: Antibacterial activity against Staphylococcus aureus ATCC 25923 assessed as inhibition of microbial growth at 0.01 to 30 uM after 24 hrs by spectrophotometric analysis; assay type: functional, organism-based; details: dose 0.01-30 µM
Candida albicans = assay: Antifungal activity against Candida albicans ATCC 10231 assessed as inhibition of fungal growth at 0.01 to 30 uM after 24 hrs by spectrophotometric analysis; assay type: functional, organism-based; details: dose 0.01-30 µM
Staphylococcus aureus [3] = assay: Antibacterial activity against methicillin-resistant Staphylococcus aureus AUS-RBWH-MRSA-02 assessed as inhibition of microbial growth at 0.01 to 30 uM after 24 hrs by spectrophotometric analysis; assay type: functional, organism-based; details: dose 0.01-30 µM

Chain of ATP-dependent translocase ABCB1 (P08183 whole entry): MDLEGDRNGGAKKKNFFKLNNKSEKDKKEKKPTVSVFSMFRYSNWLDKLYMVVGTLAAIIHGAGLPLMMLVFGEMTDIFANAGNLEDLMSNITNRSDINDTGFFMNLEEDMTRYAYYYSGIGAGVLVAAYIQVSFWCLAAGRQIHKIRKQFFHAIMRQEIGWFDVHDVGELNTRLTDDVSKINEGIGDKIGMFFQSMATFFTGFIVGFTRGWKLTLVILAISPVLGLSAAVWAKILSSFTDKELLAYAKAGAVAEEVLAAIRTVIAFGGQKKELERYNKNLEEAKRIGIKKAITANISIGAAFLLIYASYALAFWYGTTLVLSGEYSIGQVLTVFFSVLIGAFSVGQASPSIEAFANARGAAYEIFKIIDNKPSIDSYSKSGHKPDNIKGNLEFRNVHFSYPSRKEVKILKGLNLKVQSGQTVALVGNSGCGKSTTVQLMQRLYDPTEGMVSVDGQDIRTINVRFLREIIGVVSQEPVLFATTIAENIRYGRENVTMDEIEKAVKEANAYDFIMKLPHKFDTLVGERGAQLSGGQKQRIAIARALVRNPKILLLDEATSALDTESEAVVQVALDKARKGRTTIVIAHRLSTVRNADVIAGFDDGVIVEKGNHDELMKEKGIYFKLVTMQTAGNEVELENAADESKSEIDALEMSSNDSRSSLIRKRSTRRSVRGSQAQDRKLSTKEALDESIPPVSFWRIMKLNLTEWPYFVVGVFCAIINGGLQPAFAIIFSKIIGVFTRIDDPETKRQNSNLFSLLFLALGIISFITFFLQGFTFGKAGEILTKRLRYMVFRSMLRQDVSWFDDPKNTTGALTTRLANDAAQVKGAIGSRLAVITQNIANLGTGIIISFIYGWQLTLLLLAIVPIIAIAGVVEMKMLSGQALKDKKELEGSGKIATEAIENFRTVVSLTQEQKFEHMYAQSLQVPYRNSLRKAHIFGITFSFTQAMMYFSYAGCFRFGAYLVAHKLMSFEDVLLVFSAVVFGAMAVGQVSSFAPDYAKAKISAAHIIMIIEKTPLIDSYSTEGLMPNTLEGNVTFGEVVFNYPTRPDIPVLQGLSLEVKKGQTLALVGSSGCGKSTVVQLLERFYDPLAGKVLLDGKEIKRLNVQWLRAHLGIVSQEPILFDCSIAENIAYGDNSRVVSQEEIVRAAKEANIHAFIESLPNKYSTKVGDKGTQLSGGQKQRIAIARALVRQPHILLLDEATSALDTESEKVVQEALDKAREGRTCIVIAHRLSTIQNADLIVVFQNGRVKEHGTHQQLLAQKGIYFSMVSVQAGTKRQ

**Q.** Which “growth inhibition (GI)” value (SW-620) does the source give for `O=C(OCc1cccc2c1OCO2)c1ccc[nH]1` here?
**A.** inactive

**Q.** What about the inhibition (Escherichia coli) of the same compound?
**A.** inactive

**Q.** What about the “inhibition (INH)” value [1] of the same compound?
**A.** Not Active

**Q.** What about the inhibition (Staphylococcus aureus [2]) of the same compound?
**A.** inactive

**Q.** What about the inhibition (Candida albicans) of the same compound?
**A.** inactive

**Q.** What about the inhibition (Staphylococcus aureus [3]) of the same compound?
**A.** inactive

**Q.** Which results are given for `COC(=O)c1cccn1Cc1cccc(OC)c1OC`?
**A.** growth inhibition (GI) (SW-620): inactive; inhibition (Escherichia coli): inactive; inhibition (INH) [1]: Not Active; inhibition (Staphylococcus aureus [2]): inactive; inhibition (Candida albicans): inactive; inhibition (Staphylococcus aureus [3]): inactive

**Q.** For `COC(=O)c1cccn1Cc1cccc2c1OCO2`, which “growth inhibition (GI)” value (SW-620) is on record?
**A.** inactive

**Q.** What about the inhibition (Escherichia coli) of the same compound?
**A.** inactive

**Q.** What about the “inhibition (INH)” value [1] of the same compound?
**A.** Not Active

**Q.** And the inhibition (Staphylococcus aureus [2])?
**A.** inactive

**Q.** And the inhibition (Candida albicans)?
**A.** inactive

**Q.** What about the inhibition (Staphylococcus aureus [3]) of the same compound?
**A.** inactive

**Q.** What does the source list for `O=C(O)c1cccn1Cc1cccc2c1OCO2`?
**A.** growth inhibition (GI) (SW-620): inactive; inhibition (Escherichia coli): inactive; inhibition (INH) [1]: Not Active; inhibition (Staphylococcus aureus [2]): inactive; inhibition (Candida albicans): inactive; inhibition (Staphylococcus aureus [3]): inactive

**Q.** Which “growth inhibition (GI)” value (SW-620) does the source give for `COc1cccc(Cn2cccc2C(=O)O)c1OC` here?
**A.** inactive

**Q.** What about the inhibition (Escherichia coli) of the same compound?
**A.** inactive

**Q.** And the “inhibition (INH)” value [1]?
**A.** Not Active

**Q.** What about the inhibition (Staphylococcus aureus [2]) of the same compound?
**A.** inactive

**Q.** What about the inhibition (Candida albicans) of the same compound?
**A.** inactive

**Q.** What about the inhibition (Staphylococcus aureus [3]) of the same compound?
**A.** inactive

**Q.** For `O=C1c2ccc(O)c(O)c2Cn2cccc21`, which “growth inhibition (GI)” value (SW-620) is on record?
**A.** inactive

**Q.** What about the inhibition (Escherichia coli) of the same compound?
**A.** inactive

**Q.** What about the “inhibition (INH)” value [1] of the same compound?
**A.** Not Active

**Q.** And the inhibition (Staphylococcus aureus [2])?
**A.** inactive

**Q.** What about the inhibition (Candida albicans) of the same compound?
**A.** inactive

**Q.** And the inhibition (Staphylococcus aureus [3])?
**A.** inactive

**Q.** Which results are given for `O=C1c2ccc3c(c2Cn2cccc21)OCO3`?
**A.** growth inhibition (GI) (SW-620): inactive; inhibition (Escherichia coli): inactive; inhibition (INH) [1]: Not Active; inhibition (Staphylococcus aureus [2]): inactive; inhibition (Candida albicans): inactive; inhibition (Staphylococcus aureus [3]): inactive

**Q.** How did the “growth inhibition (GI)” value (SW-620) turn out when `COc1ccc2c(c1OC)Cn1cccc1C2=O` was run?
**A.** inactive

**Q.** What about the inhibition (Escherichia coli) of the same compound?
**A.** inactive

**Q.** And the “inhibition (INH)” value [1]?
**A.** Not Active

**Q.** What about the inhibition (Staphylococcus aureus [2]) of the same compound?
**A.** inactive

**Q.** And the inhibition (Candida albicans)?
**A.** inactive

**Q.** What about the inhibition (Staphylococcus aureus [3]) of the same compound?
**A.** inactive
